# Data taken from patent US9744212B2, “Galectin-3C combination therapy for human cancer” (Texas Tech University System, priority 2011, dated 2017).
# Key:
# HUVEC [1] = assay: HUVEC tubule formation assay on Matrigel with U266 conditioned media; type: cell-based, human; conditions: 20% V/V conditioned medium of U266 treated 48 h with 10 μg/mL Gal-3C, 5 nM Bor or both; 16-hour incubation
# Procedure: HUVEC Tubule Formation Assay. A tubule formation assay was performed in vitro as described (86) to measure angiogenesis. Briefly, growth factor-reduced Matrigel (Becton Dickinson) was allowed to polymerize in the presence of 30 ng/mL recombinant basic fibroblastic growth factor (bFGF; R&D Systems) for 1 hour at 37° C.
# FIG. 5 is an image of the results from the In vitro tubule formation assay having 6 regions. Serum-starved HUVEC were allowed to form tubules on a […]™ surface in the presence of VEGF (positive control), EMB-2 medium alone (negative control), or EBM-2 supplemented with 20% V/V U266 conditioned media (c.m.). […] To evaluate the effect of different treatments on the ability of U266 cells to induce angiogenesis, a […]™-based tubule formation assay was performed in the presence of U266 conditioned media as described for the chemotaxis assay. Serum-starved (5×103) HUVEC were seeded on the […]™ surface in 200-μL EBM-2 medium supplemented with 20% V/V conditioned medium. Pictures were taken after 16-hour incubation in 5% CO2 at 37° C. The assay was run in triplicate and representative images are depicted in FIG. 5. As a positive control, EBM-2 medium supplemented with 20 ng/mL VEGF was used.
# AKT/IKK pathway = assay: Western blot of proteins in the NF-κB AKT/IKK pathway; type: cell-based; conditions: U266 and primary human MM cells; Gal-3C 10 μg/ml
# From the text: EXAMPLE 4 indicates Gal-3C impairs NF-kB activation induced by Bonin U266 cells. Recently, it has been shown that the mechanism of action of Boris more complex than originally thought and can be differ depending on the cell type. […] This effect potentially reduces the therapeutic effect of Bonin MM, because NF-kB activation in plasma cells is associated with anti-apoptotic pathways (91). […] Comparison of NFkB expression by Western blot. […] Equal amounts of lysates of human primary MM and U266 cells and media were fractionated by SDS-PAGE and transferred to nitrocellulose membranes. Primary antibodies were visualized with HRP-coupled goat anti-rabbit or anti-mouse IgGs using an ATK/IKK kit (Cell Signaling Technology, Danvers, Mass.).
# Upon IKK-mediated phosphorylation, IKBα dissociates from the NF-kB complex (p50 and p65 proteins). Free NF-kB is then phosphorylated on serine 529 of the p65 subunit and enters the nucleus where it regulates gene transcription.
# VEGF = assay: ELISA of VEGF in U266 cell-conditioned medium; type: cell-based, human; conditions: 48-hour culture with 10 μg/mL Gal-3C, 5 nM Bor or both
# Procedure: (§1) ELISA of VEGF and bFGF Levels. The levels of VEGF and bFGF were measured by direct ELISA as follows. Flat-bottom 96-well polycarbonate plates were coated at 4° C. with 50 μL/well cell culture supernatants diluted 1:25 in carbonate coating buffer (0.1 M NaHCO3, […]) at 4° C. overnight. Standard curves were obtained with purified recombinant human VEGF and bFGF (both from R&D Systems) serially diluted in coating buffer (10-fold serial dilutions from 1,000 to 0 ng/mL). After removing diluted supernatants or standards, and blocking with PBS supplemented with 1% W/V BSA for 1 hour at room temperature, plates were incubated for 1 hour at room temperature with mouse anti-human VEGF or rabbit anti-human bFGF primary antibodies (2 μg/mL in PBS, 50 μL/well Abeam, Mass., USA). Then, plates were washed twice with PBS with 0.025% V/V Tween-20 (300 μL/well) and incubated at room temperature with anti-mouse or anti-rabbit HRP-labeled secondary antibodies (0.2 μg/mL in PBS, 50 μL/well Abeam, Mass., USA) for 1 hour. The plates were washed thrice with PBS containing 0.025% V/V Tween-20 (300 μL/well), the TMB colorimetric substrate (Thermo Fisher Scientific, Waltham, Mass., USA) was added, and after 5 minutes the absorbance was measured (0.1 s) at 450 nm on a Victor 2 multimodal microplate reader (PerkinElmer, Billerica, Mass., USA). All samples were run in triplicates. […]
# HUVEC [2] = assay: Vascular endothelial cell viability assay; type: cell-based, human
# Procedure: FIGS. 4A and 4B are graphs of the data from the vascular endothelial cell viability assay. […] The graphs show mean values and error bars represent 95% C.I. **=ANOVA Tukey's post test p<O.Ol. n.s.=not significant. […] Viability was measured as described for the U266 cells. […] Results obtained from the HUVEC viability studies that were run in triplicate are depicted in FIGS. 4A-B, and are presented as a percentage of control (untreated) cells.
# EXAMPLE 3 illustrates Gal-3C inhibits proliferation of MM cells. Cell Proliferation (Viability) Assays. Cell proliferation was assessed with a ViaLight Plus Cell Proliferation and Cytotoxicity BioAssay Kit (Lonza, Walkersville, Md., USA) according to the directions of the manufacturer. In brief, myeloma cells were seeded (8,000 per well) in 50 μL of RPMI-1640 with 10% heat-inactivated FBS (growth medium) in 96-well plates. HUVEC cells were seeded (10,000/well) in 50 μl EGM-2 medium in 96-well plates. Gal-3C (2× concentration) in 50 μL of growth medium was added to triplicate wells and the plate kept at the CO2 incubator at 37° C. for 48 hour. For the ViaLight assay, 50 μL of lysis buffer was added to each well, the plate was incubated for 10 minutes, after which 50 μL of cell lysate from each well was transferred to a solid white Lumitrac-200 plate and 50 μL of reconstituted AMR Plus was added. Luminescence was measured with a 1-s integrated setting in a Berthold luminometer after 2 minutes. With Alamar Blue, 10 μL of reagent was added per well and the plate kept in the CO2 incubator for 4 hours. Fluorescence intensity was measured at 590-nm on a Polarstar Galaxy (BMG Labtech, Cary, N.C.) microplate reader. The blank (growth media with 10 μl Alamar Blue) was subtracted from the raw fluorescence to obtain adjusted fluorescence readings. Triplicate data points were analyzed and the data shown are representative of 3 or more studies.
# bFGF = assay: ELISA of bFGF in U266 cell-conditioned medium; type: cell-based, human; conditions: 48-hour culture with 10 μg/mL Gal-3C, 5 nM Bor or both
# Procedure: as §1
# [3] = test system: NF-kB (serine 529 phosphorylated p65 subunit); assay: Quantification of NF-kappaB activation by flow cytometry in U266 cells; type: cell-based, human; conditions: 48 hours
# Procedure: Quantification of NF-kappaB Activation by Flow Cytometry. For measurement of NF-kB activation, 200×10^3 cells were fixed with 2% PFA in ice-cold PBS for 30 minutes. After removal of PFA, cells were permeabilized with 0.3% saponin in PBS on ice for 15 minutes, then washed and resuspended in 50 μL PBS supplemented with 1% BSA. PE-labeled anti-phosphorylated serine 529 p65 antibody (BD Biosciences, San Jose, Calif., USA) or isotype control (final dilution, 1:20) and allowed to incubate on ice in the dark for 30 minutes. Before flow-cytometric analysis cells were washed 3 times in 1-mL cold PBS with 1% BSA.
# FIG. 8A is a dot-plot of NF-kB activation in U266 cells. After 48 hours in the presence of indicated treatments, the levels of active NF-KB (serine 529 phosphorylated p65 subunit) were evaluated in U266 cells by flow cytometry.
structure (smiles),measurement,setting,value
"CC(C)C[C@H](NC(=O)[C@H](Cc1ccccc1)NC(=O)c1cnccn1)B(O)O [Bor, bortezomib, reference compound]",potential of U266 cells for induction of angiogenesis (tubule formation),HUVEC [1],almost completely impaired
same,"P-p65, P-Akt, P-IKKβ and P-IKKα (activation of the AKT/IKK pathway)",AKT/IKK pathway,increased
same,VEGF levels in U266 conditioned medium,VEGF,significantly reduced
same,effect on HUVEC viability,"HUVEC [2]; Bor at the concentration used in HUVEC assays, combined with different concentrations of Gal-3C",did not display any effect
same,effect on HUVEC viability,"HUVEC [2]; at the concentration used in the chemotaxis and angiogenesis assays (Gal-3C 2 μg/ml, Bor 1 nM), 48 h",had an effect only at a concentration 5-fold higher
same,effect on HUVEC viability,"HUVEC [2]; at the highest concentrations, 48 h",dramatic inhibition
same,bFGF levels in U266 conditioned medium,bFGF,significantly reduced
same,NF-kB activation (phosphorylated active form),[3],activated NF-kB incrementally
